Series [1] relates to M. gypseum. Briefly: In vitro antifungal activity vs. dermatophytes (MIC/MFC). In kind it is cell-based. The settings on record: M. gypseum (n = 1).
The test system of series [2] is ergosterol biosynthesis. The series is described as follows: 13C-acetate incorporation into ergosterol. In kind it is cell-based, Candida albicans. The conditions noted are these: drug at about its MIC, added after the first 15 minutes.
Series [3] can be described thus: In vitro Mammalian Cell Cytotoxicity. In kind it is cell-based. The conditions noted are these: African green monkey, Vero cells.
Series [4] relates to C. lipolytica. Briefly: In vitro antifungal activity vs. yeasts (MIC/MFC). The conditions noted are these: Yarrowia lipolytica, C. lipolytica (n = 1). In kind it is cell-based.
For series [5], the system named is Trichophyton tonsurans. The series is described as follows: In vitro antifungal activity vs. dermatophytes (MIC/MFC). It is filed as cell-based. The settings on record: Trichophyton tonsurans (n = 15).
The test system of series [6] is Escherichia coli 700. Briefly: In vitro Antibacterial Activity. It is filed as cell-based.
For series [7], the system named is Chitin Synthase. Briefly: Inhibition of fungal cell wall synthesis enzymes. It is filed as biochemical. The text has this: (§1) Specific inhibitors of each enzyme served as positive controls (Cilofungin, a β-glucan synthase inhibitor and nikkomycin Z, a chitin synthase inhibitor).
The test system of series [8] is (1,3)β-Glucan Synthase. The series is described as follows: Inhibition of fungal cell wall synthesis enzymes. It is filed as biochemical.
Text: as §1

Series [9] relates to Enterobacter faecalis 29212. Briefly: In vitro Antibacterial Activity. It is filed as cell-based.
Series [10] deals with Malassezia furfur. Briefly: In vitro antifungal activity vs. yeasts (MIC/MFC). In kind it is cell-based. The conditions noted are these: Malassezia furfur (n = 1).
For series [11], the system named is C. albicans spores. Briefly: Effect on the germination of C. albicans (MTT). In kind it is cell-based. The conditions noted are these: drug added after 3 hours.
The test system of series [12] is C. parapsilosis. Briefly: In vitro antifungal activity vs. yeasts (MIC/MFC). It is filed as cell-based. The settings on record: Lodderomyces parapsilosis, C. parapsilosis (n = 2).
Series [13] deals with Cytochrome P450 2B6 (Homo sapiens, UniProt P20813). Briefly: Inhibition of cytochrome P450 enzymes. The settings on record: substrate bupropion. It is filed as in vitro ADME. Here is the method: (§2) Peak areas corresponding to the metabolite of each substrate were recorded. The percent of control activity was then calculated by comparing the peak area obtained in the presence of the diyne potassium salt and in the absence.
Chain of Cytochrome P450 2B6 (P20813 whole entry): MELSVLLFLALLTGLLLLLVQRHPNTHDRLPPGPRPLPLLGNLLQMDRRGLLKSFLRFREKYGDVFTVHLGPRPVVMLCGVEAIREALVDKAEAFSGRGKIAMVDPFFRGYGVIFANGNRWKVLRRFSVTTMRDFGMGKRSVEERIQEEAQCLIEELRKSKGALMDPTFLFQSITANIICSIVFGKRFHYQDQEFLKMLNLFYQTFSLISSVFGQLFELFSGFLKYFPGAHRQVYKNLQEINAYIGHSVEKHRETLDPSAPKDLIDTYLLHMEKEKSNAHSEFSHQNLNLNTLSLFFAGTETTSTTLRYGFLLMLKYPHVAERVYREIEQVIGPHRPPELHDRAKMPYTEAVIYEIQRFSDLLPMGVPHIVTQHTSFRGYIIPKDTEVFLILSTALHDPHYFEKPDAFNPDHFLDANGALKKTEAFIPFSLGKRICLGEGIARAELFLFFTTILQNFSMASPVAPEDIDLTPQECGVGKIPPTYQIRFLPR

Series [14] has as its system Cytochrome P450 1A. The series is described as follows: Inhibition of cytochrome P450 enzymes. The conditions noted are these: substrate ethoxyresorufin; 10 μM. In kind it is in vitro ADME. Here is the method:
as §2

For series [15], the system named is Cytochrome P450 3A. Briefly: Inhibition of cytochrome P450 enzymes. It is filed as in vitro ADME. The conditions noted are these: 10 μM. Here is the method:
as §2

Series [16] deals with Cytochrome P450 2D6 (Homo sapiens, UniProt P10635). The series is described as follows: Inhibition of cytochrome P450 enzymes. In kind it is in vitro ADME. The settings on record: substrate dextromethorphan. The method, then: as §2
Chain of Cytochrome P450 2D6 (P10635 whole entry): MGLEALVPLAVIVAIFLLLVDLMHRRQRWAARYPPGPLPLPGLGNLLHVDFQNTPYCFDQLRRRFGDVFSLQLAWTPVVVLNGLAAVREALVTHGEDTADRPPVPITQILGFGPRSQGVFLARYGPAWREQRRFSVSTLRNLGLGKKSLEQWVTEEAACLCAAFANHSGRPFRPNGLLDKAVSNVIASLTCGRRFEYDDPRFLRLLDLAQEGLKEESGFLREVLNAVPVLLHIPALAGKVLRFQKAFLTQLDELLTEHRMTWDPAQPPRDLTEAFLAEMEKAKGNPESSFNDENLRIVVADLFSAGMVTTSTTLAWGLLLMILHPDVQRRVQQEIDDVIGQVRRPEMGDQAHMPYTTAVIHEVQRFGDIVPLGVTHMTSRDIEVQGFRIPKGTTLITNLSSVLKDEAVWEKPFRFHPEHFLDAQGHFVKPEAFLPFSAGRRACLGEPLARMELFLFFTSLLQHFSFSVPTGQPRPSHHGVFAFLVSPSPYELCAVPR
For series [17], the target named is Cytochrome P450 2C9 (Homo sapiens, UniProt P11712). Briefly: Inhibition of cytochrome P450 enzymes. In kind it is in vitro ADME. The conditions noted are these: substrate diclofenac. The method, then: as §2
Chain of Cytochrome P450 2C9 (P11712 whole entry): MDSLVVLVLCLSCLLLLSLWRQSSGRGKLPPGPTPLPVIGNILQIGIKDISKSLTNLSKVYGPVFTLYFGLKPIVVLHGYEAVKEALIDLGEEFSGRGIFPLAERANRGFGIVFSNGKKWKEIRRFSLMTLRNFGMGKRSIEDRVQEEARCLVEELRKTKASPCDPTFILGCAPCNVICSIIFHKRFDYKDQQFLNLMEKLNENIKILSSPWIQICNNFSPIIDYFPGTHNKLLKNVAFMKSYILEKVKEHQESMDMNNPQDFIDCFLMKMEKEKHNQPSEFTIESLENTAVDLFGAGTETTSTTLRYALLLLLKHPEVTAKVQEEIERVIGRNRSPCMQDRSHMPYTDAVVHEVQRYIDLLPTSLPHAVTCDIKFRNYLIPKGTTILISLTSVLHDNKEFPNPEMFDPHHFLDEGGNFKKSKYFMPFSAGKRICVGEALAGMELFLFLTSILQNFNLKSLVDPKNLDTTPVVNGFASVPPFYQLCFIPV
The target in series [18] is Cytochrome P450 2C19 (Homo sapiens, UniProt P33261). Briefly: Inhibition of cytochrome P450 enzymes. It is filed as in vitro ADME. The conditions noted are these: substrate omeprazole. Here is the method:
as §2

The target in series [19] is Cytochrome P450 2C8 (Homo sapiens, UniProt P10632). Briefly: Inhibition of cytochrome P450 enzymes. It is filed as in vitro ADME. The settings on record: substrate paclitaxel. The method, then:
as §2

The test system of series [20] is CYP1A. The series is described as follows: Inhibition of cytochrome P450 enzymes. The conditions noted are these: human, probe ethoxyresorufin; substrate ethoxyresorufin. In kind it is in vitro ADME. The method, then:
as §2

Series [21] concerns CYP3A. The series is described as follows: Inhibition of cytochrome P450 enzymes. In kind it is in vitro ADME. The settings on record: human. Here is the method:
as §2

The test system of series [22] is S. cerevisiae. The series is described as follows: Doubling times of S. cerevisiae. In kind it is cell-based. Here is the method:
S. cerevisiae was cultured in the presence of 1 and 10 μg/ml of the potassium salt, 10 μg/ml oleic acid and 1 μg/ml of the potassium salt combined with 10 μg/ml oleic acid.
When S. cerevisiae was cultured in the presence of 1 and 10 μg/ml compound IV″, the doubling times increased to 2.4 h and 4.2 h, respectively, compared to 2 h for the untreated control. The addition of 10 μg/ml oleic acid, sodium salt, to 1 μg/ml compound IV″ reversed the doubling time to 2 h as observed for the untreated control or 10 μg/ml oleic acid, sodium salt alone.

For series [23], the system named is Coccidioides spp. Briefly: microbe, parasite or virus in culture. It is filed as cell-based.
Series [24] is described as follows: Stability of diyne salts on storage (HPLC content). The conditions noted are these: crystalline solid. It is filed as physicochemical. The method, then:
Potassium (Z)-14-(furan-2-yl)tetradeca-9-en-11,13-diynoate was kept as a crystalline solid for 6 month at 2-8° C. The content of potassium (Z)-14-(furan-2-yl)tetradeca-9-en-11,13-diynoate was determined by HPLC against a reference sample kept at −20° C. After 6 months of storage characteristics such as colour, water content, XRPD profile, of the solid had not changed and it was still a beige solid. […] Also no change in the impurity profile was observed after 6 months storage.
Potassium (Z)-14-(furan-2-yl)tetradeca-9-en-11,13-diynoate was also kept as a crystalline solid for 6 month at 25° C., 60% RH. Analysis was performed as described above. After 6 months of storage characteristics of the solid has not changed and it was still a beige solid. […] Also no change in the impurity profile was observed after 6 months storage.
Potassium (Z)-14-(furan-2-yl)tetradeca-9-en-11,13-diynoate was also kept as a crystalline solid for 6 month at 40° C., 75% RH. Analysis was performed as described above. After 6 months of storage the appearance of the solid had changed to a brown solid. Furthermore, a decrease in the content of potassium (Z)-14-(furan-2-yl)tetradeca-9-en-11,13-diynoate to 96% was observed as analysed by HPLC.
Sodium (Z)-14-(furan-2-yl)tetradeca-9-en-11,13-diynoate was kept as an amorphous solid at room temperature. […] Furthermore the salt was dissolved in an aqueous solution and already after few days the content of sodium (Z)-14-(furan-2-yl)tetradeca-9-en-11,13-diynoate was reduced by 35%, thus proving strong instability of the amorphous salt form.

The mark [25] stands for this setting: 90% inhibition endpoint, read-out: MIC.

≈ marks a conversion by molar mass, not a printed value. Where “and” joins values, the source holds several entries; their conditions need not be identical. Identical values can stand only once. Bounds are passed on as bounds.

Chain of Cytochrome P450 2C19 (P33261 whole entry): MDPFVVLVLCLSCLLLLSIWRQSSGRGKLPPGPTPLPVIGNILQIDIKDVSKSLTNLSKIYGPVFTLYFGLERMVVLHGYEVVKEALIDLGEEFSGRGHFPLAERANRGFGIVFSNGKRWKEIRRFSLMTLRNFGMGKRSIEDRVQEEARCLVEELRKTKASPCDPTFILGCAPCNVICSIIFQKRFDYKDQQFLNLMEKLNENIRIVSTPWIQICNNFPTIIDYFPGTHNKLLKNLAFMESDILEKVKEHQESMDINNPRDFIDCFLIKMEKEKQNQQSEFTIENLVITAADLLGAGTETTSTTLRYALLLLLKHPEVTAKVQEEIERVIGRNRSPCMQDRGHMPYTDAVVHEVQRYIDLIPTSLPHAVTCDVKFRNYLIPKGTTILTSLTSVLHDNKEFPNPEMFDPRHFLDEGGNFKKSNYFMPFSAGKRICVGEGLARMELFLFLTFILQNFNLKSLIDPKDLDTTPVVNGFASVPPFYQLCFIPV
Chain of Cytochrome P450 2C8 (P10632 whole entry): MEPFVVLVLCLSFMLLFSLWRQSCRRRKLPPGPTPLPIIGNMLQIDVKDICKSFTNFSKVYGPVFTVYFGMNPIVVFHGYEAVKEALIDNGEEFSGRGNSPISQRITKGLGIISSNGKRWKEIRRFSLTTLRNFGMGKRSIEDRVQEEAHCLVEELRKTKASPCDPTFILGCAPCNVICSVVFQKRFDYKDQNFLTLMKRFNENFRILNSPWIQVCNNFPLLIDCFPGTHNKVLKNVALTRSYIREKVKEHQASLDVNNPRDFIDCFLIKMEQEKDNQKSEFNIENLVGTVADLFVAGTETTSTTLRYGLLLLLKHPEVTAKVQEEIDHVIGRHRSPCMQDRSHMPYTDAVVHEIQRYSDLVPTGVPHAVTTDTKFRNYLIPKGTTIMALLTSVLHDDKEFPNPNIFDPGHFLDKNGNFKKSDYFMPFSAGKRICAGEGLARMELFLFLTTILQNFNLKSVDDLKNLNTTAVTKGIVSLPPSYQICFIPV

For orientation: MIC means the smallest concentration in the dilution series that meets the test's criterion for growth inhibition. In general, MFC refers to the smallest concentration meeting the test's criterion for killing the fungus. Read a low MFC as more potent killing. For orientation: CC50 means the concentration giving 50% cytotoxicity. As for `O=C(O)CCCCCCC/C=C\C#CC#Cc1ccco1` [Compound III″], the “MIC90/MIC range 48 h” value in series [1] (48 h) was under 0.06 ng/mL; in series [5] (MIC90, 48 h), under 0.06 ng/mL. Besides, the MIC is under 0.06 ng/mL in [1] (Nannizzia gypsea, 96 h, 35° C., 4 days); under 0.06 ng/mL in [4] (setting [25]); under 0.06 ng/mL in [5] (96 h, 35° C., 4 days); under 0.06 ng/mL in series [10] (setting [25]); 4000 ng/mL (≈ 14.1 µM) in series [12] (90% inhibition endpoint). The MFC is 16000 ng/mL (≈ 56.3 µM) in series [1] (Nannizzia gypsea); under 0.06 ng/mL in series [4]; under 0.06 ng/mL in series [5]; under 0.06 ng/mL in series [10]; 32000 ng/mL (≈ 113 µM) in series [12]. In series [2], the “net biosynthesis of ergosterol (13C-acetate incorporation)” value was “did not significantly inhibit the net biosynthesis of ergosterol”. Also, the CC50 in series [3] is 46000 ng/mL (≈ 162 µM). Also, the MIC90 in [6] is over 200000 ng/mL; in series [9] it was 12500 ng/mL (≈ 44 µM). Besides, the “% Inhibition, Chitin Synthase” value is listed as 16% in [7] (10 μg/ml), 85% in [7] (100 μg/ml) and 97% in series [7] (500 μg/ml). In addition, the “concentrations at which the enzymes were inhibited” value in series [7] (chitin synthase and β-glucan synthase) is over 100 µg/mL. Further, the “% Inhibition, (1,3)β-Glucan Synthase” value in series [8] (10 μg/ml) is 0%; in [8] (100 μg/ml), 73%; in [8] (400 μg/ml), 90%. Further, in series [11], the “growth of spores germinated in the absence of drug” value is recorded as “effectively inhibited the subsequent growth of spores”.

By IC50 is commonly meant the concentration that inhibits the measured activity by half. Read a low IC50 as greater potency in that assay. On to `O=C([O-])CCCCCCC/C=C\C#CC#Cc1ccco1.[K+]` [Compound IV″, potassium (Z)-14-(furan-2-yl)tetradeca-9-en-11,13-diynoate], for which the IC50 is 24 µM in series [13]; over 100 µM in series [16]; 18 µM in series [17]; 32 µM in [18]; over 100 µM in series [19]; 59 µM in series [20]. For the same compound, the IC50 in [21] (probe midazolam, substrate midazolam) was found to be 45 µM; in series [21] (probe testosterone, substrate testosterone), 57 µM. Further, the “% control at 10 μM” value in [13] (10 μM) was determined as 82%; in [14], 92%; in series [15] (substrate midazolam), 85%; in series [15] (substrate testosterone) it was 90%; in series [16] (10 μM), 88%; in series [17] (10 μM), 74%. Also, the “% control at 10 μM” value in series [18] (10 μM) and in series [19] (10 μM) was 84% in each case. Also, the Doubling time in [22] (1 μg/ml) is 2.4 h; in series [22] (1 μg/ml combined with 10 μg/ml oleic acid), 2 h and 2.1 h; in series [22] (10 μg/ml) it was 4.2 h. In addition, in series [23] (Coccidioides spp. (n = 30), MIC90), the “MIC90/MIC range 48 h” value turned out to be 30 ng/mL. In series [23] (Coccidioides, 48 h), this compound displayed an MIC90 of 30 ng/mL. The “content after storage (HPLC)” value in series [24] (6 month at 2-8° C.) is given as “had not significantly changed”; in series [24] (6 month at 25° C., 60% RH), “had not changed significantly”. In addition, in series [24] (6 month at 40° C., 75% RH), the “content after storage (HPLC), decrease to” value is listed as 96%.

For the origin of these results see patent publication US8722910B2, “Diyne compositions” (Evolva AG, priority 2009, dated 2014).
